Measurements: article PMC6933707, “Palmitoylethanolamide counteracts substance P-induced mast cell activation in vitro by stimulating diacylglycerol lipase activity” (Journal of Neuroinflammation, 2019)

Columns and labels:
[1] = test system: RBL-2H3 cells; test: Histamine release assay (ELISA); format: cell-based, rat
Description: (§1) RBL-2H3 cells were plated into 24-well culture dishes at a cell density of 2 × 10^5 cells per well, or into 6-well culture dishes at a cell density of 9 × 10^5 cells per well, for 1 day at 37 °C in 5% CO2 atmosphere. After 1 day, RBL-2H3 cells were stimulated with SP (10 μM) or vehicle (water) and incubated for 15 min at 37 °C in 5% CO2 atmosphere.
SP-stimulated RBL-2H3 cells (2 × 10^5 cells/well) were treated with PEA (10 μM) or vehicle (methanol) for 15 min at 37 °C in 5% CO2 atmosphere. SP-stimulated RBL-2H3 cells were also treated with a CB2 antagonist, AM630 (0.1 μM), in the presence and absence of PEA (10 μM), or JWH133 (0.1 μM) (a CB2 synthetic agonist), and incubated for the indicated time. SP-stimulated RBL-2H3 cells were also treated with 2-AG (0.1 and 1 μM), or co-treated with PEA (0.1 μM) and 2-AG (0.1 μM), and incubated for the indicated time. SP-stimulated RBL-2H3 cells were also co-treated with PEA (10 μM) and OMDM188 (10 μM) (a DAGL inhibitor), and incubated for the indicated time. After 15 min, the supernatants were collected and the amounts of secreted histamine were measured by using a histamine ELISA kit according to the manufacturer’s instructions (Abnova) and by using a reader GENios Pro (Tecan). Data were expressed as nanograms per milliliter of histamine.

[2] = test system: RBL-2H3 cells; test: β-Hexosaminidase release assay; format: cell-based, rat; conditions: 15 min
Description: as §1
SP-stimulated RBL-2H3 cells (2 × 10^5 cells/well) were treated with PEA (0.1, 0.5, 1, and 10 μM) or vehicle (methanol, max 0.1%) for 15 min at 37 °C in 5% CO2 atmosphere. After 15 min, the supernatants (15 μl) were transferred to 96-well plates and incubated with 60 μl of substrate (1 mM p-nitrophenyl-N-acetyl-β-D-glucosaminide in citrate 0.05 M, pH 4.5) for 1 h at 37 °C. To determine the total amount of released β-hexosaminidase, the cells were lysed with 0.1% Triton X-100 and incubated with substrate using the same procedure as for the determination of the activity in the supernatants. The reaction was stopped by adding 150 μl of 0.1 M sodium bicarbonate buffer (pH 10.0), and the reaction product was monitored by measuring the optical density (OD) at 405 nm by using a reader GENios Pro (Tecan). The results were expressed as % of the total β-hexosaminidase content of the cells determined by cell lysis with 0.1% Triton X-100, and calculated by using the following formula: % degranulation = [ODsupernatant/(ODsupernatant + ODtriton x−100)] × 100.

In the case of `CCCCCCCCCCCCCCCC(=O)NCCO` [PEA, Palmitoylethanolamide], the histamine release ([1]; SP (10 μM)-stimulated cells, compound 0.1 μM, 15 min, vs SP + vehicle) is reported as “comparable”, the histamine release ([1]; SP (10 μM)-stimulated cells, compound 10 μM, 15 min, vs SP + vehicle) is reported as “inhibited the release of histamine” and the histamine release ([1]; SP-stimulated cells co-treated with PEA 0.1 μM and 2-AG 0.1 μM, 15 min) is reported as “able to reduce”. For the same compound, the histamine release ([1]; SP-stimulated cells co-treated with PEA 10 μM and AM630 0.1 μM, vs SP + vehicle or SP + AM630) was “comparable”, the histamine release ([1]; substance alone 10 μM, 15 min, vs vehicle-treated cells) was “No effect” and the β-hexosaminidase release ([2]; SP (10 μM)-stimulated cells, PEA 0.1, 0.5, 1 and 10 μM, concentration-dependent, vs SP + vehicle) was “strongly reduced”. The β-hexosaminidase release ([2]; substance alone 10 μM, vs vehicle-treated cells) was “No effect”.
